Reference: ChEMBL document CHEMBL3885861, “Open TG-GATES”

Organism: Rattus norvegicus
Assay: Open TG-GATES - Regimen: Daily Repeat
Type: toxicity, organism-based, Sprague-Dawley
Parameters: regimen Daily Repeat, gender Male, age 6 weeks
Conditions: in vivo, po, 30 mg/kg, route gavage, dose level Low; for APTT / Bas / Eos / Fbg / Hb / Ht / Lym / MCH / MCHC / MCV / Mono / Neu / PT / Plat / RBC / Ret / WBC: tissue Blood; for KIDNEY_L / KIDNEY_R / KIDNEY_TOTAL: tissue Kidney; for LIVER: tissue Liver; for A/G / ALP / ALT / AST / BUN / CRE / Ca / Cl / DBIL / GLC / IP / K / LDH / Na / PL / RALB / TBIL / TC / TG / TP / gamma-GTP: tissue Plasma

## CCCNC(=O)NS(=O)(=O)c1ccc(Cl)cc1 [CHLORPROPAMIDE]
72 h, time 3 day
  TERMINAL_BW: 215.3 g
  APTT: 21.2 s
  Bas: 0%
  Eos: 1.2%
  Fbg: 265 mg/dL
  Hb: 13.2 g/dL
  Ht: 39.6%
  Lym: 80.6%
  MCH: 21.1 pg
  MCHC: 33.2%
  MCV: 63.3 fL
  Mono: 2.4%
  Neu: 15%
  PT: 15.8 s
  Plat: 116.1 x10_4/uL
  RBC: 626 x10_4/ul
  Ret: 7%
  WBC: 83.4 x10_2/uL
  KIDNEY_L: 0.9 g
  KIDNEY_R: 0.9 g
  KIDNEY_TOTAL: 1.8 g
  LIVER: 10.1 g
  A/G: 0.9
  ALP: 1696 IU/L
  ALT: 49.6 IU/L
  AST: 73.2 IU/L
  BUN: 17.8 mg/dL
  CRE: 0.2 mg/dL
  Ca: 10.6 mg/dL
  Cl: 106 meq/L
  DBIL: 0.01 mg/dL
  GLC: 174 mg/dL
  IP: 7.5 mg/dL
  K: 4.1 meq/L
  LDH: 80.8 IU/L
  Na: 143.2 meq/L
  PL: 151 mg/dL
  RALB: 2.6 g/dL
  TBIL: 0.024 mg/dL
  TC: 78.8 mg/dL
  TG: 108 mg/dL
  TP: 5.7 g/dL
  gamma-GTP: 1 IU/L
[…], time 7 day
  TERMINAL_BW: 245.8 g
  APTT: 19.1 s
  Bas: 0%
  Eos: 1%
  Fbg: 284.8 mg/dL
  Hb: 13.7 g/dL
  Ht: 41.3%
  Lym: 79.6%
  MCH: 21.3 pg
  MCHC: 33.2%
  MCV: 64.2 fL
  Mono: 1.8%
  Neu: 16.2%
  PT: 15.5 s
  Plat: 127.7 x10_4/uL
  RBC: 643 x10_4/ul
  Ret: 5.9%
  WBC: 95.2 x10_2/uL
  KIDNEY_L: 1 g
  KIDNEY_R: 1 g
  KIDNEY_TOTAL: 2 g
  LIVER: 11.3 g
  A/G: 0.8
  ALP: 1568.6 IU/L
  ALT: 42 IU/L
  AST: 66.8 IU/L
  BUN: 16.2 mg/dL
  CRE: 0.2 mg/dL
  Ca: 10.9 mg/dL
  Cl: 105.6 meq/L
  DBIL: 0.018 mg/dL
  GLC: 182.8 mg/dL
  IP: 7.4 mg/dL
  K: 3.9 meq/L
  LDH: 93.8 IU/L
  Na: 143.4 meq/L
  PL: 157.6 mg/dL
  RALB: 2.7 g/dL
  TBIL: 0.032 mg/dL
  TC: 76.4 mg/dL
  TG: 136.6 mg/dL
  TP: 5.8 g/dL
  gamma-GTP: 1 IU/L
[…], time 14 day
  TERMINAL_BW: 303 g
  APTT: 16.7 s
  Bas: 0%
  Eos: 0.8%
  Fbg: 263 mg/dL
  Hb: 14.3 g/dL
  Ht: 43.2%
  Lym: 79.6%
  MCH: 20.8 pg
  MCHC: 33.2%
  MCV: 62.7 fL
  Mono: 2.6%
  Neu: 15.6%
  PT: 16.1 s
  Plat: 107.2 x10_4/uL
  RBC: 688.6 x10_4/ul
  Ret: 4.6%
  WBC: 100.6 x10_2/uL
  KIDNEY_L: 1.2 g
  KIDNEY_R: 1.2 g
  KIDNEY_TOTAL: 2.4 g
  LIVER: 13.3 g
  A/G: 0.8
  ALP: 1602.6 IU/L
  ALT: 41.8 IU/L
  AST: 66.6 IU/L
  BUN: 18.6 mg/dL
  CRE: 0.2 mg/dL
  Ca: 10.6 mg/dL
  Cl: 103.6 meq/L
  DBIL: 0.012 mg/dL
  GLC: 204.8 mg/dL
  IP: 7.7 mg/dL
  K: 4 meq/L
  LDH: 123.6 IU/L
  Na: 142.6 meq/L
  PL: 155 mg/dL
  RALB: 2.6 g/dL
  TBIL: 0.028 mg/dL
  TC: 74.4 mg/dL
  TG: 143.8 mg/dL
  TP: 5.8 g/dL
  gamma-GTP: 0.8 IU/L
[…], time 28 day
  TERMINAL_BW: 389 g
  APTT: 18.8 s
  Bas: 0%
  Eos: 1%
  Fbg: 296.4 mg/dL
  Hb: 14.9 g/dL
  Ht: 45.1%
  Lym: 78.8%
  MCH: 19.4 pg
  MCHC: 33%
  MCV: 58.9 fL
  Mono: 2.8%
  Neu: 16.2%
  PT: 16 s
  Plat: 106.6 x10_4/uL
  RBC: 766.6 x10_4/ul
  Ret: 2.5%
  WBC: 98 x10_2/uL
  KIDNEY_L: 1.4 g
  KIDNEY_R: 1.4 g
  KIDNEY_TOTAL: 2.8 g
  LIVER: 16.1 g
  A/G: 0.8
  ALP: 1184 IU/L
  ALT: 39 IU/L
  AST: 64.8 IU/L
  BUN: 18.2 mg/dL
  CRE: 0.2 mg/dL
  Ca: 10.8 mg/dL
  Cl: 104.8 meq/L
  DBIL: 0.01 mg/dL
  GLC: 198.4 mg/dL
  IP: 6.7 mg/dL
  K: 3.6 meq/L
  LDH: 99.8 IU/L
  Na: 144.8 meq/L
  PL: 163.8 mg/dL
  RALB: 2.8 g/dL
  TBIL: 0.018 mg/dL
  TC: 77.8 mg/dL
  TG: 165.6 mg/dL
  TP: 6.2 g/dL
  gamma-GTP: 1.6 IU/L
